Structures can show the parent of a compound that is named as a salt. Where only a bound is given, the exact number is not on record here.

In one assay the target is T1, human GlyT1b (Homo sapiens, UniProt P48067).
T1 construct: expressed in transfected cells
T1 sequence (P48067 1-652 isoform P48067-3): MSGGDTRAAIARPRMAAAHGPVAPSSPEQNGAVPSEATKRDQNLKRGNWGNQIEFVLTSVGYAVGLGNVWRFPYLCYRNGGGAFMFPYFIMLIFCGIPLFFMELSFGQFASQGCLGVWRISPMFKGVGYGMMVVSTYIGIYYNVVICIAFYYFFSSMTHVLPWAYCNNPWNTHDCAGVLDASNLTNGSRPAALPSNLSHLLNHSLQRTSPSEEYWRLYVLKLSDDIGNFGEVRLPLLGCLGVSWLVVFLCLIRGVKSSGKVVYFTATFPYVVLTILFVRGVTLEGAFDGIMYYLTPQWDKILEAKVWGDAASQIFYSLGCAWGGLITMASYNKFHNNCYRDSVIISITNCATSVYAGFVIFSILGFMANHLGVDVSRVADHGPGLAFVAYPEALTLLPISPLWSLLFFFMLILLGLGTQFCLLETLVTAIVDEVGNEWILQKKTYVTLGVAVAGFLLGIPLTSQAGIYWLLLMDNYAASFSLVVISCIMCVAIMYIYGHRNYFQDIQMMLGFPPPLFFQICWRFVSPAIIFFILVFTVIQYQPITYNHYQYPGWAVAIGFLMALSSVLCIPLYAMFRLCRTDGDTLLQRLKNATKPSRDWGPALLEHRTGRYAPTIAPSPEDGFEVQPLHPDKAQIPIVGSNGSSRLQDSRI
Description: [3H]Glycine Uptake Assay (SPA) in hGlyT1b/CHO cells. The format is cell-based. The settings on record: compounds of Formula Ia, read at 2 h. Here is the method:
The activity and usefulness of the compounds can be assessed in assays known to those skilled in the art. […] The potency was measured in the [3H]Glycine Uptake Assay substantially as described below.
[^3H]Glycine Uptake Assay
[^3H]Glycine: PerkinElmer (NET-004, [2-^3H]Glycine, 53.3 Ci/mmol, 1 mCi/mL)
Preparation of recombinant human GlyT1-CHO cells (hGlyT1-CHO). […] CHO-K1 cells (ATCC) were transfected with the recombinant vector containing GlyT1b using Lipofectamine 2000 (Invitrogen) and cultured in Ham's/F12 media supplemented with 10% fetal bovine serum, 2 mM L-glutamine at 37° C., 5% CO2, 90% humidity. Twenty-four hours after transfection, cells were diluted and switched to media containing 500 μg/ml hygromycin B. Antibiotic resistant cells were obtained after 21 days of culture in the presence of hygromycin B. Clonal stable cell lines were isolated by FACS single cell deposition into 96-well plates.
Cell culture: Recombinant hGlyT1-CHO cells were cultured in cell culture medium (Ham's/F12, containing 10% FBS, 2 mM L-glutamine and 500 μg/ml hygromycin B in 175 cm^2 flasks until near confluence prior to use in assay.
Cell suspension: Cell medium in a cell culture flask containing near confluent cells was removed and 5 ml of cell stripper was added to submerge all cells on the surface of the culture flask. Cell stripper was removed immediately and the flask incubated in a 37° C. incubator for ˜5 min. Cells were shaken loose and suspended in 5 ml of PBS. After splitting cells to initiate a new flask(s), the cells remaining were collected by centrifugation, counted, and resuspended in assay buffer to a density of ˜2 million/mL. The cell suspension was kept at room temperature before use.
SPA and isotope mixture: WGA PTV beads were suspended in assay buffer (2 mg/ml) containing 60 nM [^3H]Glycine and 20 μM unlabeled glycine and the suspension was kept at room temperature before assay.
Assay of glycine uptake: To the wells of an OptiPlate, 2 μl DMSO containing a test compound was spotted. This was followed by addition of 98 μl of cell suspension (˜1 million/ml final). After incubating cells with compound for ˜15 min, 100 μl of the SPA (200 μg/well final) and isotope mixture (30 nM isotope with 10 μM cold glycine, final) was added to initiate the glycine uptake. At 2 h, the plate was read on a TopCount to quantify SPA counts.
As for `O=C(NC(c1ccccc1)C12CCC(CC1)CN2)c1cccc(Cl)c1Cl` (single isomer, unassigned) [N-(2-azabicyclo[2.2.2]octan-1-yl(phenyl)methyl)-2,3-dichlorobenzamide], it took 99.7 nM to reach half-maximal inhibition (IC50).

For the compound `Cc1c(C(=O)NC(c2ccccc2)C23CCC(CC2)CN3)cccc1C(F)(F)F` (single isomer, unassigned) [N-(2-azabicyclo[2.2.2]octan-1-yl(phenyl)methyl)-2-methyl-3-(trifluoromethyl)benzamide], the IC50 (as a rule, the concentration that inhibits the measured activity by half) was 67.6 nM.

`O=C(NC(c1ccccc1)C12CCC(CC1)CN2)c1cccc(C(F)(F)F)c1Cl` (single isomer, unassigned) [drawing 102, N-(2-azabicyclo[2.2.2]octan-1-yl(phenyl)methyl)-2-chloro-3-(trifluoromethyl)benzamide]: 455 nM corresponded to half-maximal inhibition (IC50).

In turn, `O=C(NC(c1ccccc1)C12CCC(CC1)CN2)c1cccc(C(F)(F)F)c1Cl` (single isomer, unassigned) [drawing 103, N-(2-azabicyclo[2.2.2]octan-1-yl(phenyl)methyl)-2-chloro-3-(trifluoromethyl)benzamide] came in with an IC50 of 198 nM.

Take `O=C(NC(c1ccccc1)C12CCC(CC1)CN2)c1cccc(C(F)(F)F)c1Cl` (stereo not drawn) [N-(2-azabicyclo[2.2.2]octan-1-yl(phenyl)methyl)-2-chloro-3-(trifluoromethyl)benzamide]: inhibition was half-maximal at 258 nM (IC50).

Still in this assay, the particulars now being: compounds of Formula Ib, read at 2 h.
The compound `CN1CC2CCC1(C(NC(=O)c1ccc(Cl)cc1Cl)c1ccccc1)CC2` (stereo not drawn) [2,4-dichloro-N-((2-methyl-2-azabicyclo[2.2.2]octan-1-yl)(phenyl)methyl)benzamide] registered a half-inhibitory concentration (IC50) of 6.45 nM.

As to `CN1CC2CCC1(C(NC(=O)c1cccc(F)c1Br)c1ccccc1)CC2` (stereo not drawn) [2-bromo-3-fluoro-N-((2-methyl-2-azabicyclo[2.2.2]octan-1-yl)(phenyl)methyl)benzamide], the IC50 amounted to 25.8 nM.

`CN1CC2CCC1(C(NC(=O)c1c(Cl)cccc1Br)c1ccccc1)CC2` (stereo not drawn) [2-bromo-6-chloro-N-((2-methyl-2-azabicyclo[2.2.2]octan-1-yl)(phenyl)methyl)benzamide] returned an IC50 of 12.1 nM.

`Cc1cccc(Br)c1C(=O)NC(c1ccccc1)C12CCC(CC1)CN2C` (stereo not drawn) [2-bromo-6-methyl-N-((2-methyl-2-azabicyclo[2.2.2]octan-1-yl)(phenyl)methyl)benzamide] registered an IC50 of 1.34 nM.

Compound `CN1CC2CCC1(C(NC(=O)c1ccccc1Br)c1ccccc1)CC2` (stereo not drawn) [2-bromo-N-((2-methyl-2-azabicyclo[2.2.2]octan-1-yl)(phenyl)methyl)benzamide] displayed a half-maximal inhibitory concentration (IC50) of 10.5 nM.

`CN1CC2CCC1(C(NC(=O)c1cccc(F)c1Cl)c1ccccc1)CC2` (stereo not drawn) [2-chloro-3-fluoro-N-((2-methyl-2-azabicyclo[2.2.2]octan-1-yl)(phenyl)methyl)benzamide] gave an IC50 of 12 nM.

Consider `COc1ccc(Cl)c(C(=O)NC(c2ccccc2)C23CCC(CC2)CN3C)c1` (stereo not drawn) [2-chloro-5-methoxy-N-((2-methyl-2-azabicyclo[2.2.2]octan-1-yl)(phenyl)methyl)benzamide], for which half-maximal inhibition (IC50) required 32.7 nM.

`COc1cccc(Cl)c1C(=O)NC(c1ccccc1)C12CCC(CC1)CN2C` (stereo not drawn) [2-chloro-6-methoxy-N-((2-methyl-2-azabicyclo[2.2.2]octan-1-yl)(phenyl)methyl)benzamide] registered an IC50 of 3.15 nM.

As for `Cc1cccc(Cl)c1C(=O)NC(c1ccccc1)C12CCC(CC1)CN2C` (stereo not drawn) [2-chloro-6-methyl-N-((2-methyl-2-azabicyclo[2.2.2]octan-1-yl)(phenyl)methyl)benzamide], half-maximal inhibition (IC50) was put at 2.3 nM.

With `CN1CC2CCC1(C(NC(=O)c1ccccc1Cl)c1ccccc1)CC2` (stereo not drawn) [2-chloro-N-((2-methyl-2-azabicyclo[2.2.2]octan-1-yl)(phenyl)methyl)benzamide], the midpoint of inhibition, the IC50, lay at 65.1 nM.

As to `CN1CC2CCC1(C(NC(=O)c1cccc(C(F)(F)F)c1F)c1ccccc1)CC2` (stereo not drawn) [2-fluoro-N-((2-methyl-2-azabicyclo[2.2.2]octan-1-yl)(phenyl)methyl)-3-(trifluoromethyl)benzamide], the IC50 is 92 nM.

`CN1CC2CCC1(C(NC(=O)c1c(F)cccc1C(F)(F)F)c1ccccc1)CC2` (stereo not drawn) [2-fluoro-N-((2-methyl-2-azabicyclo[2.2.2]octan-1-yl)(phenyl)methyl)-6-(trifluoromethyl)benzamide]: half-maximal inhibition (IC50) was put at 65 nM.

`Cc1c(C(=O)NC(c2ccccc2)C23CCC(CC2)CN3C)cccc1C(F)(F)F` (stereo not drawn) [2-methyl-N-((2-methyl-2-azabicyclo[2.2.2]octan-1-yl)(phenyl)methyl)-3-(trifluoromethyl)benzamide]: the IC50 is less than 2.34 nM.

`Cc1ccccc1C(=O)NC(c1ccccc1)C12CCC(CC1)CN2C` (stereo not drawn) [2-methyl-N-((2-methyl-2-azabicyclo[2.2.2]octan-1-yl)(phenyl)methyl)benzamide]: half-maximal inhibition (IC50) required 3.48 nM.

As for `Cc1c(F)cccc1C(=O)NC(c1ccccc1)C12CCC(CC1)CN2C` (stereo not drawn) [3-fluoro-2-methyl-N-((2-methyl-2-azabicyclo[2.2.2]octan-1-yl)(phenyl)methyl)benzamide], the IC50 stood at 2.6 nM.

The compound `CN1CC2CCC1([C@H](NC(=O)c1ccc(Cl)cc1Cl)c1ccccc1)CC2` [(R)-2,4-dichloro-N-((2-methyl-2-azabicyclo[2.2.2]octan-1-yl)(phenyl)methyl)benzamide,citric acid salt] returned an IC50 of 11.1 nM.

As to `CN1CC2CCC1([C@H](NC(=O)c1cccc(F)c1Cl)c1ccccc1)CC2` [(R)-2-chloro-3-fluoro-N-((2-methyl-2-azabicyclo[2.2.2]octan-1-yl)(phenyl)methyl)benzamide,citric acid salt], the half-maximal inhibitory concentration (IC50) stood at 5.9 nM.

As for `COc1cccc(Cl)c1C(=O)N[C@H](c1ccccc1)C12CCC(CC1)CN2C` [(R)-2-chloro-6-methoxy-N-((2-methyl-2-azabicyclo[2.2.2]octan-1-yl)(phenyl)methyl)benzamide,citric acid salt], it took 4.74 nM to reach half-maximal inhibition (IC50).

Turning to `CCOc1ccccc1C(=O)N[C@H](c1ccccc1)C12CCC(CC1)CN2C` [(R)-2-ethoxy-N-((2-methyl-2-azabicyclo[2.2.2]octan-1-yl)(phenyl)methyl)benzamide,citric acid salt], the IC50 worked out at 336 nM.

For the compound `CCc1ccccc1C(=O)N[C@H](c1ccccc1)C12CCC(CC1)CN2C` [(R)-2-ethyl-N-((2-methyl-2-azabicyclo[2.2.2]octan-1-yl)(phenyl)methyl)benzamide,citric acid salt], the IC50 was determined as 0.965 nM.

`CN1CC2CCC1([C@H](NC(=O)c1ccccc1C(F)(F)F)c1ccccc1)CC2` [(R)-N-((2-methyl-2-azabicyclo[2.2.2]octan-1-yl)(phenyl)methyl)-2-(trifluoromethyl)benzamide,citric acid salt] had an IC50 of 49.6 nM.

In turn, `CN1CC2CCC1(C(NC(=O)c1cc(C(F)(F)F)ccc1C(F)(F)F)c1ccccc1)CC2` (stereo not drawn) [N-((2-methyl-2-azabicyclo[2.2.2]octan-1-yl)(phenyl)methyl)-2,5-bis(trifluoromethyl)benzamide] showed an IC50 of 86.2 nM.

`CSc1ccccc1C(=O)NC(c1ccccc1)C12CCC(CC1)CN2C` (stereo not drawn) [N-((2-methyl-2-azabicyclo[2.2.2]octan-1-yl)(phenyl)methyl)-2-(methylthio)benzamide]: the IC50 is 2.95 nM.

On to `CN1CC2CCC1(C(NC(=O)c1ccccc1OC(F)(F)F)c1ccccc1)CC2` (stereo not drawn) [N-((2-methyl-2-azabicyclo[2.2.2]octan-1-yl)(phenyl)methyl)-2-(trifluoromethoxy)benzamide], for which the IC50 was found to be 13.6 nM.

In turn, `CN1CC2CCC1(C(NC(=O)c1ccc(F)cc1Cl)c1ccccc1)CC2` (stereo not drawn) [drawing 37, 2-chloro-4-fluoro-N-((2-methyl-2-azabicyclo[2.2.2]octan-1-yl)(phenyl)methyl)benzamide] returned an IC50 of 8.45 nM.
